Reference: article PMC10671498, “Antiproliferative and Cytotoxic Properties of Propynoyl Betulin Derivatives against Human Ovarian Cancer Cells: In Vitro Studies” (International Journal of Molecular Sciences, 2023)

What was measured:
SK-OV-3 cells [1] = assay: Cell morphology, acridine orange staining; format: cell-based, human; details: SK-OV-3, 24 h, 30 µM
Description: Acridine orange staining was preceded by preparation of a cell culture at a density 1 × 10^5 per well in a 24-well glass bottom plate (NEST Biotechnology, Wuxi, China). Cells were cultured for 24 h in a standard medium (1 mL), after which the medium was replaced with a new medium containing 10 µM and 30 µM of the test compounds or with 0.2% DMSO (control). Cells were incubated in the presence of test substances for 24 h in a CO2 incubator. To each of the test wells, acridine orange dissolved in PBS (the final concentration was 1 µg/mL) was added and incubated for 5 min in a CO2 incubator. After incubation, the cells were observed under a Nikon Eclipse TS-100F microscope (Nikon Instruments Europe, Amstelveen, The Netherlands). The photographs were taken with a Nikon DS-Fi1 digital camera, supported by the NIS-Elements application.

SK-OV-3 cells [2] = assay: DNA fragmentation assay (Cell Death Detection ELISA, cytoplasmic fraction), SK-OV-3; format: cell-based, human; details: for DNA fragmentation (enrichment factor, internucleosomal DNA fragments): SK-OV-3, 24 h, 3, 10, 30 µM
Description: (§1) Fragmentation of genomic DNA was determined by means of the Cell Death Detection ELISAPLUS kit (Roche, Basel, Switzerland). This method rests on the immunoenzymatic detection of DNA–histone complexes in the cytoplasmic cell fraction or cell culture supernatants. Cells were plated and cultured in 96-well plates (Greiner Bio-One) at the initial density of 5 × 10^3 cells per well in 100 µL of culture medium. Cells were allowed to attach and grow for 1 day prior to the addition of test reagents. Then, the media were replaced with the working solutions (3 µM, 10 µM, 30 µM), and cells were exposed to compounds 2–6 for 24 h. In some cases, 5 µM cyclosporin A (CsA, an inhibitor of the mitochondrial permeability transition) was added to the cells 30 min before treatment with the betulin derivative. Subsequently, cells were incubated concomitantly with both compounds. After a 24 h incubation period, plates were centrifuged (200× g; 10 min), media were removed, and cells were lysed for 30 min at room temperature. At the next step, the lysates were again spun (200× g; 10 min), and 20 µL of supernatants (cytoplasmic fractions) was moved to the new 96-well streptavidin-coated plate. In one experiment, the presence of mono- and oligonucleosomes was determined in 20 µL samples of centrifuged culture supernatants (media) to detect the permeability of plasma membrane (considered as an indicator of cell necrosis). Then, the sandwich ELISA assay was fulfilled according to the manufacturer’s protocol. Absorbance was measured at 405 nm and 490 nm (reference wavelength), and the enrichment factor of the cytoplasmic (or supernatant) fraction in mono- and oligonucleosomes was calculated according to the formula: EF = absorbance of sample cells/absorbance of control cells.
A high EF index in the cytoplasmic fraction (resulting from DNA fragmentation while maintaining the tightness of cell membranes) is a typical indicator of the relatively early stage of apoptosis.

OVCAR-3 cells = assay: LDH release assay, OVCAR-3; format: cell-based, human; details: OVCAR-3, 24 h
Description: (§2) In order to evaluate the cytotoxic effect, the release of LDH into the culture medium using the In Vitro Toxicology Assay Kit, Lactic Dehydrogenase Based (TOX7; Sigma Aldrich) was assessed. SK-OV-3 and OVCAR-3 cells were plated and cultured in 96-well plates (Greiner Bio-One) at the initial density of 5 × 10^3 cells per well in 100 µL of culture medium. The density of the cells was determined in the same manner as in the SRB assay. After 24 h, the media were replaced with the working solutions, which contained appropriate test compounds at concentrations of 3 μM, 10 μM, 30 μM, and control medium (0.2% DMSO). Cells were exposed to the test substances for 24 h. The background control comprised wells without cells with only control medium. To determine the maximal LDH release (high control), half of the control cultures were treated with lysis buffer. Wells with untreated cells were used as the low control of the assay. LDH activity in media was assessed according to the manufacturer’s protocol. The absorbance was measured at wavelengths of 490 nm and 690 nm (background), and the percentage of released enzyme was calculated for cells growing in the presence of compounds according to the formula:Cytotoxicity [%] = [(AT − AL)/(AH − AL)] × 100 where AT is the absorbance of treated wells; AL is low control; and AH is high control (maximal LDH release).
(§3) Cytotoxicity was expressed as a percentage of the released LDH calculated according to the difference between the absorbance of the treated and low control wells divided by the difference between the absorbance of the high control and low control wells.

SK-OV-3 cells [3] = assay: TMRM analysis of mitochondrial membrane potential; format: cell-based, human; details: SK-OV-3, 3 h, 30 µM
Description: Tetramethylrhodamine methyl ester (Sigma Aldrich) was used for the assessment of changes in the transmembrane potential of mitochondria. TMRM is a fluorescent cationic dye accumulating in mitochondria in a potential-dependent manner. Cell cultures were prepared as described above for acridine orange staining. Cells were exposed to test solutions for 3 h, and then TMRM was added (final concentration 100 nM) followed by incubation for 30 min in the CO2 incubator. Prior to observation, the plates were centrifuged (250× g, 5 min), and the medium was changed to PBS. The cells were analyzed under the Nikon Eclipse TS-100F microscope and photographed.

SNB-19 cell line = system: SNB-19 cell line; set-up: method as in PMID 33572631; details: cited from earlier work
C32 cell line = system: C32 cell line; set-up: method as in PMID 33572631; details: cited from earlier work
T47D cell line = system: T47D cell line; set-up: method as in PMID 33572631; details: cited from earlier work
SK-OV-3 cells [4] = assay: LDH release assay, SK-OV-3; format: cell-based, human; details: SK-OV-3, 24 h, 10 μM and 30 μM
Description: as §2, §3

SK-OV-3 cells [5] = assay: Plasma membrane permeability (DNA-histone complexes in culture medium); format: cell-based, human; details: SK-OV-3, 24 h, with 5 µM cyclosporin A added 30 min before
Description: as §1, with “After a 24 h incubation period, plates were centrifuged (200× g; 10 min), media were removed, and cells were lysed for 30 min at room temperature. At the next step, the lysates were again spun (200× g; 10 min), and 20 µL of supernatants (cytoplasmic fractions) was moved to the new 96-well streptavidin-coated plate.” left out, “Then, the sandwich ELISA assay was fulfilled according to the manufacturer’s protocol.” left out

Compound	cell morphology (acridine orange) (SK-OV-3 cells [1])	DNA fragmentation (enrichment factor, internucleosomal DNA fragments) (SK-OV-3 cells [2])	cytotoxicity (released LDH), loss of cell membrane integrity (OVCAR-3 cells; 30 µM)	mitochondrial membrane potential (TMRM fluorescence) (SK-OV-3 cells [3])	IC50 (SNB-19 cell line) [nM]	IC50 (C32 cell line) [nM]	effect of CsA on compound-induced cell death, DNA fragmentation (SK-OV-3 cells [2]; SK-OV-3, 24 h, with 5 µM cyclosporin A added 30 min before)	cytotoxicity (released LDH) (OVCAR-3 cells; all concentrations (3, 10, 30 μM))	IC50 (T47D cell line) [nM]	cytotoxicity (released LDH) (SK-OV-3 cells [4])	effect of CsA on compound-induced cell death, plasma membrane permeability (SK-OV-3 cells [5])
C=C(C)[C@@H]1CC[C@]2(CO)CC[C@]3(C)[C@H](CC[C@@H]4[C@@]5(C)CC[C@H](O)C(C)(C)[C@@H]5CC[C@]43C)[C@@H]12 [Compound 1, lup-20(29)-ene-3β,28-diol, reference compound]	typical apoptotic morphology	significant increase	loss of cell membrane integrity was also confirmed								
C#CC(=O)OC[C@]12CC[C@@H](/C(C)=C/P(=O)(OCC)OCC)C1C1CCC3[C@@]4(C)CC[C@H](O)C(C)(C)C4CC[C@@]3(C)[C@]1(C)CC2 (stereo partly drawn) [Compound 6, E-29-diethoxyphosphoryl-28-O-propynoylbetulin]		moderate increases		reduced the mitochondrial membrane potential	430	600	almost completely prevented	significant cytotoxic activity	700	most cytotoxic agent	almost completely prevented
